Laboratory results published in US20130157924A1, “REDUCING TRANSMISSION OF SEXUALLY TRANSMITTED INFECTIONS” (THE REGENTS OF THE UNIVERSITY OF CALIFORNIA, priority 2010, published 2013).
“Also recorded” adds a separate entry of the source.

How the values were obtained:
[1] = tested on: HIV-1 (IIIB); test: SEVI mediated enhancement of HIV infection, CEM 5.25 cells (luciferase); type: cell-based; details: 25 μg/mL SEVI fibrils; compound 5.5, 11 and 16.5 μg/mL; 72 hrs
Description: CEM 5.25 cells were exposed to infectious HIV-1 (IIIB) for 2 hours in the absence or presence (25 μg/mL) of SEVI fibrils; BTA-EG4 (FIG. 5A) and EG6 (FIG. 5B) was added at concentrations of 5.5, 11 and 16.5 μg/mL.

[2] = tested on: HIV-1 IIIB; test: Semen mediated enhancement of HIV infection, CEM 5.25 cells (luciferase); type: cell-based; details: 50% semen, diluted 15 fold; 48 hours
Description: After 10 minutes these stocks were diluted 15 fold into CEM 5.25 cells.
After 10 minutes, the stocks were diluted 15 fold and incubated with CEM 5.25 cells. […] After 90 minutes cells were washed to remove any unbound virus and bound virions were detected using a p24 ELISA.

[3] = tested on: HIV-1 IIIB; test: Virus binding assay, HIV-1 IIIB virions to Jurkat cells (p24); type: cell-based; details: for SEVI-enhanced binding of HIV-1 IIIB virions to Jurkat cells (p24 ELISA): SEVI-pretreated virions, 90 min, increasing concentrations
Description: After 90 minutes, cells were washed to remove any unbound virus and bound virions were detected using a p24 ELISA. […]
After 90 min, cells were washed to remove any unbound virus, and bound virions were detected using an HIV-1 p24 antigen capture assay (Advanced Bioscience Laboratory). […]
After 90 min, cells were washed to remove any unbound virus, and bound virions were detected using an HIV-1 p24 antigen capture assay (Advanced Bioscience Laboratory, Rockville, Md.).

[4] = tested on: cervical epithelial cell lines SiHa, A2En (endocervical), and 3EC1 (ectocervical); test: Viability of cervical cell lines (resazurin, AlamarBlue); type: cell-based, human; details: up to 10 times the IC50 (66 μg/ml)
Text: Loss of this protective layer leads to an increased ability for HIV-1 to cross the mucosal barrier, and inflammatory effects drive recruitment of HIV-1 target cells, further decreasing the natural barriers against successful transmission of HIV. […] To do this, the following cell lines were used: 1) SiHa cells, a cervical carcinoma cell line; 2) A2En cells, a primary cell-derived line from the endocervical […]; and 3) 3EC1 cells, a primary cell-derived line from the ectocervical […]. […] Viability was assessed at 24 h by using the resazurin cytotoxicity assay. Resazurin cytotoxicity data were confirmed by trypan blue counts of viable cells.

[5] = tested on: A2En, 3EC1, and SiHa Cells; test: Cytokine and chemokine induction in cervical cell lines (ELISA); details: 6 h; varying concentrations up to 66 μg/ml
Description: Cytokine and chemokine production was assessed at 12 h by ELISA (R&D systems). Cells were also treated with 0.1% nonoxynol-9 as a positive control for cytotoxicity and with 0.1 μg/ml FSL1, a synthetic diacylated lipoprotein derived from Mycoplasma salivarium (InvivoGen, San Diego, Calif.), as a positive control for chemokine production.
Nonoxynol-9 (non-9), a spermicide, was used as a positive control. […] Cell culture supernatants were then assessed for the presence of the inflammatory cytokines and chemokines Mip-3α (FIG. 5B), IL-8 (FIG. 16C), IL-1β, and TNF-α.

[6] = biological target: T1, SEVI fibrils (Homo sapiens, UniProt P15309); test: Fluorescence polarization, displacement of FITC-heparin from SEVI fibrils; type: binding; set-up: PAP248-286 and biotinylated PAP248-286, in which a biotin was added to the amino terminus of the peptide, was synthesized; made in house; host or cells: chemical peptide synthesis; fibrils formed by agitation in PBS at 37 °C for 72 h; details: 16 μg/ml FITC-heparin; 1 h room temperature
T1 sequence (P15309 248-286 limits assumed): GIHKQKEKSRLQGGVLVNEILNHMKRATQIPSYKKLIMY
Description: Samples were incubated 1 h at room temperature and read on a PerkinElmer Life Sciences Envision 2012 multilabel reader (PerkinElmer, Waltham, Mass.) at an excitation λ=480 nm and emission λ=535 nm. The horizontal and vertical polarized fluorescence intensities were recorded, and the calculated polarization was determined in millipolarization units.
In order to find other small molecules that bind SEVI, a fluorescence polarizing screen was developed. Polarized light passed over a small unbound molecule with a fluorescent moiety will produce rapid rotation and will result in fluorescence that is de-polarized. Polarized light passed over SEVI bound to a small molecule with a fluorescent moiety will result in fluorescence that is polarized. […] Samples were incubated at excitation of λ=480 and emission λ=535 (FIG. 8, left graph). […] Samples were incubated for 1 hour at room temperature and polarized fluorescence was measured.
ThT is able to intercalate into the generic β-sheet structure of amyloid fibrils. […] This molecule binds to Aβ fibrils and interferes with the ability of Aβ-binding proteins to interact with the fibrils.

[7] = biological target: aggregated Alzheimer disease-related Aβ(1-42) peptides (Homo sapiens, UniProt P05067); details: read-out: Kd for binding to aggregated Aβ(1-42) peptides; same fluorescence binding assay
Description: These incubations were performed in duplicate runs and allowed to equilibrate overnight at room temperature. After equilibration, each solution was centrifuged at 16,000×g for 30 min. The supernatants were separated from the pelleted fibrils, and 220 μl of fresh PBS was added to resuspend the pellets. […] Error bars represent standard deviations from the mean. […] The data were processed using Origin 7.0 (MicroCal Software, Inc., Northampton, Mass.).

[8] = tested on: Jurkat cells; test: Flow cytometry, binding of SEVI-biotin fibrils to Jurkat cell surface (SA-FITC); type: cell-based, human; details: for MFI (mean fluorescent intensity) / SA-FITC+ (cells with bound fibrils): SEVI-biotin 1 h
Description: Cells were incubated for 1 h at 37° C., washed, and stained for 1 h with a covalent conjugate of streptavidin and fluorescein isothiocyanate (SA-FITC). Cells were washed and run on an Accuri C6 Flow Cytometer (Accuri Cytometers, Ann Arbor, Mich.). Data were analyzed using FlowJo (TreeStar Inc, Ashland, Oreg.).
After that time, fibrillar structures were examined by ThT fluorescence. ThT changes in fluorescence intensity when intercalated into the β-sheet structure common to amyloid fibrils; therefore, ThT fluorescence serves as a surrogate measure for fibrillar structure of SEVI and for the stability of SEVI fibrils. […] Binding of the fibrils to the cell surface was detected using SA-FITC. […] Surface-bound fibrils were detected with SA-FITC and measured by flow cytometry. Results are shown as percentage of cells with bound fibrils (SA-FITC+) as well as mean fluorescent intensity (MFI).

[9] = tested on: HIV-1ADA
Description: Treated virions were then added to 5×10^4 CEM-M7 cells/well in 96-well flat-bottomed tissue culture plates. After 2 h, the medium […] were replaced. Infection was assayed after 48 h by quantifying luciferase expression using the Promega Dual-Luciferase assay and a Beckman Coulter DTX880 plate reader.

[10] = tested on: HIV-1BaL
Description: Cells were washed at 3 h, and infection was analyzed at day 4 using the HIV-1 p24 antigen capture assay (Advanced Bioscience Laboratory).

[11] = tested on: HIV-1ADA; details: individual semen sample, 50%; R5 virus
Description: (§1) After 15 min, the semen and virus mixture was diluted 1:15 into 5×10^4 CEM-M7 cells/well in a 96-well plate. Cells were washed after 1 h, and infection was assayed at 48 h as above.
(§2) As human semen has been reported to be toxic to cultured cells, a protocol that minimized this toxicity was used. Pooled human semen was added to HIV-1IIIB virus in a 1:1 dilution. After 15 min, this solution was added to cells at a 1:15 dilution for a final concentration of 3.3%.

[12] = tested on: HIV-1IIIB; details: pooled human semen 1:1, then 1:15; 5.5, 11, 22.5 μg/ml
Description: as §1, §2

[13] = tested on: A2En cells; details: 15 μg/ml SEVI; 5.5, 11, 22.5 μg/ml; 24 h
Description: Supernatant was collected at 6 and 24 h, and the production of the chemokines IL-8 and Mip-3α was measured by ELISA (R&D Systems). […] After 6 h, supernatants were collected, and the production of the chemokines IL-8 and Mip-3α was measured by ELISA (R&D systems, Minneapolis, Minn.).
HIV stimulates the release of MIP-3 and IL-8 from vaginal and cervical epithelial cells.

[14] = tested on: HIV-1ADA; details: 22.5 μg/ml BTA-EG6
Description: After 90 min, cells were washed to remove any unbound virus, and bound virions were detected using a p24 ELISA. […] At 24 h, supernatants were collected and analyzed by ELISA for the presence of IL-8.
Surface-bound virions were then measured by p24 ELISA after washing off unbound virus. […] Additionally, this experiment was performed using A2En cells, a primary cell-derived endocervical cell line.

[15] = heparin (100 μg/ml) positive control

Sequence of aggregated Alzheimer disease-related Aβ(1-42) peptides (P05067 672-713): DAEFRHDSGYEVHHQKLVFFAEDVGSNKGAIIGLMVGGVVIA

## Cc1ccc2nc(-c3ccc(NCCOCCOCCOCCO)cc3)sc2c1 [BTA-EG4]
[1]
  SEVI mediated enhancement of HIV infection (luciferase activity): decreasing levels of luciferase activity; also recorded: inhibit SEVI mediated enhancement of HIV infection
[2]
  semen mediated enhancement of HIV infection (luciferase activity): decrease in luciferase activity; also recorded: inhibit semen mediated enhancement of HIV Infection
[3]
  SEVI-enhanced binding of HIV-1 IIIB virions to Jurkat cells (p24 ELISA): decrease in HIV-1 binding to the cells; also recorded: decrease SEVI enhanced binding of HIV to target cells
[4]
  cell viability: did not affect the cell viability; also recorded: not toxic to cervical epithelial Cells
[5]
  production of inflammatory cytokines and chemokines (Mip-3α, IL-8, IL-1β, TNF-α): do not induce cytokine production in cervical epithelial cells
[6]
  binding to SEVI fibrils (displacement of FITC-heparin, polarized fluorescence): capable of binding SEVI; also recorded: detects binding

## Cc1ccc2nc(-c3ccc(NCCOCCOCCOCCOCCOCCO)cc3)sc2c1 [BTA-EG6]
[1]
  SEVI mediated enhancement of HIV infection (luciferase activity): decreasing levels of luciferase activity; also recorded: inhibit SEVI mediated enhancement of HIV infection
[2]
  semen mediated enhancement of HIV infection (luciferase activity): decrease in luciferase activity; also recorded: inhibit semen mediated enhancement of HIV Infection
[3]; Jurkat cells, no SEVI
  binding of HIV virions to the cell surface in the absence of SEVI: no effect on the binding of HIV virions to the cell surface; also recorded: no effect on the binding of HIV-1 virions alone to cells
[3]
  SEVI-enhanced binding of HIV-1 IIIB virions to Jurkat cells (p24 ELISA): decrease in HIV-1 binding to the cells; also recorded: decrease SEVI enhanced binding of HIV to target cells; also recorded: efficiently inhibited SEVI-mediated enhancement of HIV-1IIIB attachment to Jurkat cells
[3]; listed as BTAEG6
  SEVI-enhanced binding of HIV-1 IIIB virions to Jurkat cells (p24 ELISA): efficiently abrogated
[7]
  Kd: 111 ± 32 nM
[8]; BTA-EG6 high (27 μg/ml)
  MFI (mean fluorescent intensity): 38.7
  SA-FITC+ (cells with bound fibrils): 21.2%
[8]; BTA-EG6 low (5.5 μg/ml)
  MFI (mean fluorescent intensity): 95.3
  SA-FITC+ (cells with bound fibrils): 36.6%
[8]; Jurkat T cells, increasing concentrations
  interaction of SEVI fibrils with the cell surface: inhibited the ability of SEVI fibrils to interact with and bind the cell surface; also recorded: inhibits the interaction of SEVI fibrils with the cell surface
[9]; 15 μg/ml SEVI, R5 strain
  SEVI-mediated enhancement of HIV-1 infection (luciferase): significant dose-dependent inhibition
[9]; absence of SEVI
  infectivity of HIV-1ADA in the absence of SEVI: No effect on the infectivity of HIV-1ADA
[10]; 15 μg/ml SEVI, day 4
  SEVI-mediated enhancement of HIV-1 infection in PBMCs (p24): able to inhibit SEVI-mediated enhancement of HIV-1 infection in PBMCs
[10]; absence of SEVI
  infectivity of HIV-1BaL in PBMCs in the absence of SEVI: no effect on the infectivity of HIV-1BaL
[11]
  semen-mediated enhancement of HIV-1 infection (luciferase): this effect extended to infection with an R5 virus
[12]
  semen-mediated enhancement of HIV-1 infection (luciferase): efficiently inhibited the semen mediated enhancement of HIV-1 infection; also recorded: inhibits semen-mediated enhancement of HIV-1 infectivity
[13]
  IL-8 release from cells treated with virus and SEVI: able to inhibit this release
[4]
  cell viability: did not affect the cell viability; also recorded: did not have any effects on cell viability; also recorded: not toxic to cervical cells
[4]; listed as EG6
  cell viability: not toxic to cervical epithelial Cells
[14]
  SEVI-enhanced binding of virions to A2En cells (p24): inhibited
[5]
  production of inflammatory cytokines and chemokines (Mip-3α, IL-8, IL-1β, TNF-α): did not lead to the release of any of these cytokines or chemokines; also recorded: do not induce cytokine production in cervical epithelial cells; also recorded: does not induce inflammatory chemokine production in cervical epithelial cells
[6]
  binding to SEVI fibrils (displacement of FITC-heparin, polarized fluorescence): capable of binding SEVI; also recorded: able to displace fluorescent heparin from the SEVI fibrils in a dose-dependent fashion; also recorded: detects binding; also recorded: binds SEVI fibrils

## heparin [reference compound]
[8]; [15]
  MFI (mean fluorescent intensity): 376
  SA-FITC+ (cells with bound fibrils): 31.7%
[6]
  binding to SEVI fibrils (displacement of FITC-heparin, polarized fluorescence): polarization decreased
